Our source for the IC50, BEI and Ratio IC50 values is ChEMBL document CHEMBL1158438, “Discovery and structure-guided drug design of inhibitors of 11beta-hydroxysteroid-dehydrogenase type I based on a spiro-carboxamide scaffold” (Bioorg Med Chem Lett, 2009).

SMILES strings stand for the structures.

The target of test [1] is T1, 11-beta-hydroxysteroid dehydrogenase type 2 (Homo sapiens, UniProt P80365).
T1 sequence (P80365 whole entry): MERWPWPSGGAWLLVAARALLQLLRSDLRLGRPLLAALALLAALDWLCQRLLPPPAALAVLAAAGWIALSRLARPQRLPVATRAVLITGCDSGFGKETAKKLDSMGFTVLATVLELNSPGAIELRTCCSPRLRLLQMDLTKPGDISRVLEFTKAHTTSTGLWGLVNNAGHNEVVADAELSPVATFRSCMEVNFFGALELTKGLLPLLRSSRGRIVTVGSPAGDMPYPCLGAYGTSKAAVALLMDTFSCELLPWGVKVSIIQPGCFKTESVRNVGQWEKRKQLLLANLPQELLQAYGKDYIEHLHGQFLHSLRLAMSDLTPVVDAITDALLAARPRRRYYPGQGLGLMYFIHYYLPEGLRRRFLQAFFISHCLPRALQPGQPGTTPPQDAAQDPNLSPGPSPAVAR
As to the kind of experiment: Inhibition of human recombinant 11beta-HSD2 expressed in Escherichia coli by HTRF assay. (Time-resolved FRET reads energy transfer from a long-lived donor to a nearby acceptor.)

Test [2] concerns the target T2, 11-beta-hydroxysteroid dehydrogenase 1 (Homo sapiens, UniProt P28845). As to the kind of experiment: Inhibition of human recombinant 11beta-HSD1 expressed in Escherichia coli by HTRF assay.
Target sequence in this assay (P28845 whole entry): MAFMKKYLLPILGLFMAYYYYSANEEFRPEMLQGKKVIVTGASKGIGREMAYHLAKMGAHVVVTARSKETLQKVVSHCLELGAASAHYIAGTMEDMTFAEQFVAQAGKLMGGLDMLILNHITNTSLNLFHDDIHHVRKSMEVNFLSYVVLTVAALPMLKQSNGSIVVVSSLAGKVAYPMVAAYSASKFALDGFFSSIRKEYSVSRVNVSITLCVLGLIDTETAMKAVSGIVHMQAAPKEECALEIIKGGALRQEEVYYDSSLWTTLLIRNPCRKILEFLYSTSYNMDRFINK
Test [3] concerns the target 11-beta-hydroxysteroid dehydrogenase 1 (Mus musculus, UniProt P50172). As to the kind of experiment: Inhibition of 11beta-HSD1 in mouse liver microsomes fraction. The arrangement: species or system Microsome. A general note: Liver microsomes are a subcellular fraction often used to study metabolism.
Test [4] has as its target T2, 11-beta-hydroxysteroid dehydrogenase 1.
Target sequence in this assay (P28845 whole entry, looked up): as the sequence (P28845 whole entry) above
A further test is filed under the species Homo sapiens. Put plainly: Selectivity ratio, IC50 for human recombinant 11beta-HSD2 to IC50 for human recombinant 11beta-HSD1.
Test [5] addresses T2, 11-beta-hydroxysteroid dehydrogenase 1. As to the kind of experiment: Inhibition of human 11beta-HSD1.

Sequence of 11-beta-hydroxysteroid dehydrogenase 1 (Mus musculus, UniProt P50172) (P50172 whole entry): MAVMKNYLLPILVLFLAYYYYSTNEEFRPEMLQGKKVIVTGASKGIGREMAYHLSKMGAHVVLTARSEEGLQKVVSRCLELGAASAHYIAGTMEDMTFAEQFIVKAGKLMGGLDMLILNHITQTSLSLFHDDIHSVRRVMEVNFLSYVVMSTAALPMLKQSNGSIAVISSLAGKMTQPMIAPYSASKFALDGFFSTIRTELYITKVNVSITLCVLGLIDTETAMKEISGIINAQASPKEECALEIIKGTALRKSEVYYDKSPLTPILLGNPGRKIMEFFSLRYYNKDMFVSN

Take `O=C(N1CCC2(CCCc3ccccc32)C1)C1(c2ccc(Cl)cc2)CC1` (stereo not given): the IC50 was > 100 µM in test [1], 0.022 µM in test [2] and 3.4 µM in test [3]. In test [4], the BEI was determined as 20.9 kDa-1. For the same compound, in the test filed under Homo sapiens, the Ratio IC50 is > 4500.

As to `O=C(N1CCC2(CCCCC2)C1)C1(c2ccc(Cl)cc2)CC1`, the values for the half-inhibitory concentration (IC50) in test [1], in test [2] and in test [3] were > 100 µM, 0.006 µM and 3.4 µM, respectively. In addition, in test [4], the BEI is 25.9 kDa-1. The Ratio IC50 in the test listed under Homo sapiens is > 16000.

Regarding `O=C(N1CCC2(CCCCC2)C1)C1(c2ccccc2)CC1`, the IC50 is > 100 µM in test [1], 0.0005 µM in test [2] and 0.377 µM in test [3]. This compound also returned a BEI in test [4] of 32.7 kDa-1. The Ratio IC50 in the test listed under Homo sapiens was > 200000.

In test [5], `O=C1CC2(CCN(C(=O)C3(c4ccccc4)CC3)CC2)Oc2ccc(F)cc21` displayed a BEI of 14.8 kDa-1 and an IC50 of 2.5 µM.

With `O=C(N1CCC2(CCc3ccccc32)C1)C1(c2ccc(Cl)cc2)CC1` (stereo not given), the IC50 in test [1] is > 100 µM; in test [3], 2.6 µM. In test [4], the BEI came out at 21.6 kDa-1.

As usually defined, the IC50 is the concentration needed to halve the response being measured.
